ChEMBL document CHEMBL5608207, “Development of narrow-spectrum topoisomerase-targeting antibacterials against mycobacteria” (Eur J Med Chem, 2024)
≈ marks a conversion by molar mass, not a printed value. Calls of active or inactive are those of the source. The rule behind the calls is not given here.

Tests used:
[1] = Inhibition of Mycobacterium tuberculosis DNA gyrase B
[2] = tested on: Mycobacterium tuberculosis; assay: Antimycobacterial activity against Mycobacterium tuberculosis H37Rv ATCC 25618 assessed as reduction in viability at 5 uM incubated for 6 days by resazurin reduction microplate assay; format: functional
[3] = tested on: Mycobacterium tuberculosis; assay: Antimycobacterial activity against Mycobacterium tuberculosis H37Rv ATCC 25618 assessed as reduction in viability incubated for 6 days by resazurin reduction microplate assay; format: functional; settings: H37Rv ATCC 25618, 144 h, time 6 day
[4] = tested on: Mycolicibacterium smegmatis; assay: Antimycobacterial activity against Mycobacterium smegmatis MC2 incubated for 2 days by resazurin reduction microplate assay; format: functional; settings: MC2, 48 h, time 2 day
[5] = tested on: Mycobacteroides abscessus; assay: Antimycobacterial activity against Mycobacterium abscessus RIVM incubated for 1 day by resazurin reduction microplate assay; format: functional; settings: 24 h
Staphylococcus aureus = assay: Antibacterial activity against Staphylococcus aureus ATCC 29213 incubated for 18 hrs by serial broth microdilution method; format: functional
THP-1 [6] = assay: Cytotoxicity against replicating human THP-1 cells; format: toxicity, cell-based
Acinetobacter baumannii [7] = assay: Antibacterial activity against Acinetobacter baumannii; format: functional
[8] = tested on: Mycobacterium tuberculosis; assay: (§1) Antimycobacterial activity against GFP-expressing Mycobacterium tuberculosis H37Rv infected in PMA-treated THP-1 cells assessed as bacterial viability at 10 uM pre-infected for 3 hrs prior to gentamycin addition for 1 hr followed by washout and compound addition measured after 4 days by fluorescence microscopic analysis (reference value: 100%); format: functional; settings: time 4 day
[9] = tested on: Mycobacterium tuberculosis; assay: as §1, with “number of viable macrophages” for “bacterial viability”, “analysis” for “analysis (reference value: 100%)”; format: functional; settings: time 4.0 day
THP-1 [10] = assay: Cytotoxicity against human THP-1 cells pretreated with PMA for 48 hrs followed by washout and compound addition for 5 days by resazurin sodium salt method; format: toxicity, cell-based; settings: thp-1, 120 h, time 5 day
Pseudomonas aeruginosa [11] = assay: Antibacterial activity against Pseudomonas aeruginosa; format: functional
[12] = biological target: DNA topoisomerase 2-alpha (Homo sapiens) (UniProt P11388); assay: Inhibition of human DNA topoisomerase II alpha assessed as residual activity at 100 uM using supercoiled pNO1 plasmid as substrate incubated for 30 mins by diamond dye staining based fluorescence microplate reader assay relative to control
Pseudomonas aeruginosa [13] = assay: Antibacterial activity against Pseudomonas aeruginosa ATCC 27853 incubated for 18 hrs by serial broth microdilution method; format: functional
Acinetobacter baumannii [14] = assay: Antibacterial activity against Acinetobacter baumannii ATCC17978 incubated for 18 hrs by serial broth microdilution method; format: functional
[15] = biological target: DNA topoisomerase 2-alpha (Homo sapiens) (UniProt P11388); assay: Inhibition of human DNA topoisomerase II alpha assessed as residual activity at 10 uM using supercoiled pNO1 plasmid as substrate incubated for 30 mins by diamond dye staining based fluorescence microplate reader assay relative to control
Escherichia coli [16] = assay: Antibacterial activity against Escherichia coli ATCC 25922 incubated for 18 hrs by serial broth microdilution method; format: functional
Klebsiella pneumoniae = assay: Antibacterial activity against Klebsiella pneumoniae ATCC10031 incubated for 18 hrs by serial broth microdilution method; format: functional
Enterobacter cloacae = assay: Antibacterial activity against Enterobacter cloacae ATCC13047 incubated for 18 hrs by serial broth microdilution method; format: functional
Escherichia coli [17] = assay: Antibacterial activity against Escherichia coli ATCC 25922 harboring deltaTolC mutant incubated for 18 hrs by serial broth microdilution method; format: functional

Chain of DNA topoisomerase 2-alpha (Homo sapiens) (P11388 whole entry): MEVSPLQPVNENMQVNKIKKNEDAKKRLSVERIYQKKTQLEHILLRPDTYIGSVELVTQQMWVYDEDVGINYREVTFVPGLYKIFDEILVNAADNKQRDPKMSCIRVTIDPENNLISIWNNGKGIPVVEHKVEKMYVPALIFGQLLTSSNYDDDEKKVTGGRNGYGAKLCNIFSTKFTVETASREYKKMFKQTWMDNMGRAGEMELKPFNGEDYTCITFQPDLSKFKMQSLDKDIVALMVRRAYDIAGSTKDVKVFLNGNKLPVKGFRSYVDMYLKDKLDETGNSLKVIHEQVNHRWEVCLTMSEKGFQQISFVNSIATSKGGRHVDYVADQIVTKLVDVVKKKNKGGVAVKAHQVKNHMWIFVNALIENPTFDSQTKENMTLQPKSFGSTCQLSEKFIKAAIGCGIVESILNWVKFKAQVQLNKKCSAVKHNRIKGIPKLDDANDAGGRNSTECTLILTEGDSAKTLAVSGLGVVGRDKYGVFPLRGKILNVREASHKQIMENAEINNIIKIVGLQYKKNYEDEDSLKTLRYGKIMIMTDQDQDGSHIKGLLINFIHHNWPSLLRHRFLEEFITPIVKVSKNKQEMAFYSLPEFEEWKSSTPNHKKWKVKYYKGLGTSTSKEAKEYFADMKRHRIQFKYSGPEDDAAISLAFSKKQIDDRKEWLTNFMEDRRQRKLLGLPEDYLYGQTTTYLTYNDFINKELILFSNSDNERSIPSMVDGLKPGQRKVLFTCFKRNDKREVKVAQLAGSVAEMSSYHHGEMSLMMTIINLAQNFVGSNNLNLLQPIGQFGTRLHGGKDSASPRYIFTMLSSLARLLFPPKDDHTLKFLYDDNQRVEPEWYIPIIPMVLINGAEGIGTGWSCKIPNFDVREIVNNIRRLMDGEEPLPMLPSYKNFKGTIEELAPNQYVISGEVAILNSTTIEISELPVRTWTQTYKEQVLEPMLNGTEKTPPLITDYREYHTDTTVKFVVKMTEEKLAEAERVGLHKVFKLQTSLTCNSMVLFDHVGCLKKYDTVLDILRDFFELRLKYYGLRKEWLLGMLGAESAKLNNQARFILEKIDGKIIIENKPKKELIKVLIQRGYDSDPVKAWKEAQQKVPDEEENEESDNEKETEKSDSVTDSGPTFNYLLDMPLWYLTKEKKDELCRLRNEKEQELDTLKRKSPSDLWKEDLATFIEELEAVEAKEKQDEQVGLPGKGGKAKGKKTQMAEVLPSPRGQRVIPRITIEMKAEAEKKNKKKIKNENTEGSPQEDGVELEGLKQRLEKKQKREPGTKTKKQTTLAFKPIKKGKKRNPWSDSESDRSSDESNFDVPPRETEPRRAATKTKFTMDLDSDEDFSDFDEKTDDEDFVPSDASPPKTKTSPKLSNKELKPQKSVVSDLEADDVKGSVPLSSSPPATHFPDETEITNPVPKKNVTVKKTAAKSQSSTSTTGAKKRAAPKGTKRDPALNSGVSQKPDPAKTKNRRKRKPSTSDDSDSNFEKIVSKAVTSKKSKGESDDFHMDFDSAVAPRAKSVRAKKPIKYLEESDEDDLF

SMILES: Cc1[nH]c(C(=O)Nc2nc3c(OCc4ccccc4)cc(C(=O)O)cc3s2)c(Cl)c1Cl
- IC50 [1]: 0.0051 µM
- Activity ([2]; time 6.0 day): inactive

SMILES: Cc1[nH]c(C(=O)Nc2nc3c(OC(CN4CCC(N(C)C)CC4)c4ccccc4)cc(C(=O)O)cc3s2)c(Cl)c1Cl (centres undefined)
- MIC90 [3]: 10 µM (≈ 6.17 µg/mL)
- MIC90 [4]: 5 µM (≈ 3.08 µg/mL)
- MIC90 [5]: 2.5 µM (≈ 1.54 µg/mL)

SMILES: Cc1[nH]c(C(=O)Nc2nc3c(OC(CN(C)C)c4ccccc4)cc(C(=O)O)cc3s2)c(Cl)c1Cl (centres undefined)
- MIC90 [3]: 1.25 µM (≈ 0.667 µg/mL)
- MIC90 [4]: 0.16 µM (≈ 0.0853 µg/mL)
- MIC90 [5]: 0.63 µM (≈ 0.336 µg/mL)

SMILES: Cc1[nH]c(C(=O)Nc2nc3c(OC(CN4CCOCC4)c4ccccc4)cc(C(=O)O)cc3s2)cc1F (centres undefined)
- Activity (Staphylococcus aureus): inactive
- MIC90 [3]: > 40 µM
- MIC90 [4]: 10 µM (≈ 5.25 µg/mL)
- MIC90 [5]: 2.5 µM (≈ 1.31 µg/mL)

SMILES: Cc1[nH]c(C(=O)Nc2nc3c(OC(CN)c4ccccc4)cc(C(=O)O)cc3s2)c(Cl)c1Cl (centres undefined)
- MIC90 [3]: 1.25 µM (≈ 0.632 µg/mL)
- MIC90 [4]: 1.25 µM (≈ 0.632 µg/mL)
- MIC90 [5]: 0.63 µM (≈ 0.318 µg/mL)

SMILES: Cc1[nH]c(C(=O)Nc2nc3ccc(C(=O)O)cc3s2)c(Cl)c1Cl
- Activity (THP-1 [6]): Non-Toxic
- MIC (Acinetobacter baumannii [7]): 4 mg/L (≈ 10.8 µM)
- IC50 [1]: 0.0245 µM
- Activity [8]: 14%
- Activity [9]: inactive
- Activity (THP-1 [10]): Non-Toxic
- Activity ([2]; time 6 day): 57%
- MIC (Pseudomonas aeruginosa [11]): 8 mg/L (≈ 21.6 µM)

SMILES: Cc1[nH]c(C(=O)Nc2nc3c(OC(CN4CCN(C)CC4)C4CC4)cc(C(=O)O)cc3s2)c(Cl)c1Cl (centres undefined)
- MIC90 (Staphylococcus aureus): 14 µM (≈ 7.73 µg/mL)
- MIC90 [3]: 5 µM (≈ 2.76 µg/mL)
- Activity [12]: 99%
- MIC90 [4]: 0.63 µM (≈ 0.348 µg/mL)
- MIC90 (Pseudomonas aeruginosa [13]): > 116 µM
- MIC90 (Acinetobacter baumannii [14]): > 116 µM
- MIC90 [5]: 0.63 µM (≈ 0.348 µg/mL)
- Activity [15]: 99%
- MIC90 (Escherichia coli [16]): > 116 µM
- MIC90 (Klebsiella pneumoniae): 7 µM (≈ 3.87 µg/mL)
- MIC90 (Enterobacter cloacae): > 116 µM

SMILES: Cc1[nH]c(C(=O)Nc2nc3c(OC4CCNC4)cc(C(=O)O)cc3s2)c(Cl)c1Cl (centres undefined)
- MIC90 (Staphylococcus aureus): > 130 µM
- MIC90 [3]: 2.5 µM (≈ 1.14 µg/mL)
- Activity [12]: 102%
- MIC90 [4]: > 20 µM
- MIC90 (Pseudomonas aeruginosa [13]): > 130 µM
- MIC90 (Escherichia coli [17]): 130 µM (≈ 59.2 µg/mL)
- MIC90 (Acinetobacter baumannii [14]): > 130 µM
- MIC90 [5]: 10 µM (≈ 4.55 µg/mL)
- Activity [15]: 102%
- MIC90 (Escherichia coli [16]): 130 µM (≈ 59.2 µg/mL)
- MIC90 (Klebsiella pneumoniae): > 130 µM

SMILES: Cc1[nH]c(C(=O)Nc2nc3c(OC(CN4CCC(N)CC4)c4ccccc4)cc(C(=O)O)cc3s2)c(Cl)c1Cl (centres undefined)
- MIC90 [3]: 1.25 µM (≈ 0.736 µg/mL)
- MIC90 [4]: 0.63 µM (≈ 0.371 µg/mL)
- MIC90 [5]: 0.63 µM (≈ 0.371 µg/mL)
- Activity (Escherichia coli [16]): Active
